Values joined by “and” are separate entries in the source; they are usually repeats but may differ in a detail not shown here. Equal entries are not always repeated.
Tests used:
avidin = biological target: T1, avidin (Gallus gallus, UniProt P02701); assay: HABA assay: displacement of HABA from avidin; type: binding
T1 construct: purchased Pierce Chemical Company
Experimental: In order to determine whether CBZ can bind to avidin, a solution of 10 mg/L CBZ dissolved in methanol was used in a HABA assay (Pierce Chemical Company, Pittsburgh, Pa.). When [2-(4′-hydroxyazobenzene) benzoic acid (HABA) is added in excess of avidin (Pierce Chemical Company, Pittsburgh, Pa.), an absorption at 500 nm is observed and a change in color occurs from yellow to red. This absorption is decreased proportionately when biotin is added since biotin displaces the HABA dye due to its higher affinity for avidin. The assay can be performed in a single cuvette by noting the A500 of the avidin-HABA solution before and after addition of the biotin-containing sample; the change in absorbance can then be related to the amount of biotin in the sample by using the extinction coefficient of the complex.
This change in absorbance is equivalent to 0.17 μmoles biotin-competing capacity of CBZ/ml reaction mixture. This amount was present according to a calculation equation described by the manufacturer.

[1] = Serum CBZ concentration in CBZ-treated rats (competitive avidin assay vs HPLC with UV detection); type: in vivo; details: rat serum, 3.75 g CBZ/kg diet for 68 days, Serum #1-#3
Experimental: Biotinylated bovine serum albumin (BSA) was synthesized by mixing 50 mL of 10 g/L BSA in ice-cold 0.1 mol/L NaHCO3 (pH 7.5) with 5 mL of a 12 g/L N-hydroxysuccinimide ester (NHS-biotin) in dimethyl sulfoxide overnight at 4° C. The mixture was dialyzed for 48 h with gentle stirring at 4° C.
A flat bottom 96-well microtiter plate (Nunc Maxisorp, Fisher Scientific, Pittsburgh, Pa.) was coated with 200 μL of a 1:2 dilution of biotinylated BSA in coating buffer (50 mmol/L bicarbonate, pH 9.0) and incubated at 4° C. for at least 1 h (up to 48 h).
A 10 g/L stock of CBZ was made by dissolving CBZ in methanol and then this was diluted 1:2 in Hepes buffer (0.1 mol/L Hepes, 1 mol/L NaCl, pH 7.0) to make a concentration of 5 g/L. 5 μL of this stock was diluted in 295 μL serum (collected immediately after a rat had been killed by exsanguination and whole blood was allowed to clot 10 min before centrifugation at 10,000× g for 10 min, and serum recovered). […]
The coated flat bottom plate was washed three times with 0.05% (v/v) tween-20 and before the wells dried out, 100 μL of the contents of the U-bottom plate were added to the flat bottom plate and incubated for 45 min—up to 4 h. […] After 45 min, 50 μL of 2 mol/L H2SO4 was added to the wells and the absorbance was measured at 490-650 nm in a plate reader spectrophotometer (Molecular Devices, Sunnyvale, Calif.). […]

[2] = humans, serum concentration; cited from earlier work

T1 sequence (P02701 25-152): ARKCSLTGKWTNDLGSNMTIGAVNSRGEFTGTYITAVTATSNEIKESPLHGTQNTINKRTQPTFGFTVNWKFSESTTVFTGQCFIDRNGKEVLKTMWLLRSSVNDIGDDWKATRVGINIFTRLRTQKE

Structure (SMILES): NC(=O)N1c2ccccc2C=Cc2ccccc21 [CBZ, 5-carbamoyl-5H-dibenz[b,f]azepine]
- change in absorbance at 500 nm (avidin; 10 mg/L CBZ in methanol added to avidin-HABA solution): 0.5633
- binding to avidin relative to HABA (avidin; HABA displacement): binds more tightly to avidin than does HABA
- biotin-competing capacity of CBZ/ml reaction mixture (avidin; calculated from change in absorbance by manufacturer's equation, 10 mg/L CBZ): 0.17 µmol
- serum CBZ concentration, HPLC ([1]; HPLC with UV detection): 4.7 mg/L and 3.3 mg/L
- serum CBZ concentration, Competitive Assay ([1]; avidin-HRP/biotinylated BSA competitive assay): 4.8 mg/L and 3.8 mg/L and 3.0 mg/L
- therapeutic range [2]: 4 to 12 mg/L
